B1: NT-3: Neurotrophin-3 (R & D Systems) (protein, UniProt P20783 139-257, looked up)
Neurotrophin-3: YAEHKSHRGEYSVCDSESLWVTDKSSAIDIRGHQVTVLGEIKTGNSPVKQYFYETRCKEARPVKNGCRGIDDKHWNSQCKTSQTYVRALTSENNKLVGWRWIRIDTSCVCALSRKIGRT
B2: BDNF: brain-derived neurotrophic factor (R & D Systems), known promoter of neural stem cell differentiation (protein, UniProt P23560 19-247, looked up)
Neurotrophic factor BDNF …: APMKEANIRGQGGLAYPGVRTHGTLESVNGPKAGSRGLTSLADTFEHVIEELLDEDQKVRPNEENNKDADLYTSRVMLSSQVPLEPPLLFLLEEYKNYLDAANMSMRVRRHSDPARRGELSVCDSISEWVTAADKKTAVDMSGGTVTVLEKVPVSKGQLKQYFYETKCNPMGYTKEGCRGIDKRHWNSQCRTTQSYVRALTMDSKKRIGWRFIRIDTSCVCTLTIKRGR

What was measured:
[1] = literature; cited from earlier work
[2] = literature; cited from earlier work; remark: listed apart in the source
rat cortical stem cells [3] = assay: Neuronal differentiation of rat cortical stem cells (β-tubulin III immunofluorescence, cell counting); type: cell-based; settings: rat cortical stem cells; for effect on neuronal differentiation (percentage of β-tubulin-III expressing cells) in words: 6 days, vs control; for percentage of β-tubulin III expressing neurons (mean+SD): daily treatment 6 days, 10 ng/ml BDNF, 20 ng/ml NT-3, untreated control 6.2+1.8%
Description: Isolation of cortical and striatal stem cells. Timed pregnant Sprague Dawley rats were obtained from Taconic at embryonic age E14–E15 were sacrificed by inhalation of excess carbon dioxide. The abdomen of the rat was cleaned with 70% ethanol and the uterus was removed quickly and aseptically on the bench top. The uterus was placed in ice cold HBSS (GIBCO Cat. #20012-027) in a 10 cm petridish. After rinsing the uterus in PBS, embryos were removed from the uterus, rinsed in HBSS and collected in cold HBSS (buffered with HEPES and sodium bicarbonate) in a 10 cm petridish and placed on ice.
Plating, expansion and passaging of cortical and striatal stem cells. A generous amount of the triturated cell suspension was left in the original 15 ml tube to avoid fibroblast contamination in cultures. About 4–5 ml of the 6 ml of cells suspension was used for plating. Cells were plated at a concentration of 1.3×10^3 cells to 3.0×10^3 per cm^2 in 100 mm dish. This culture is designated P0 (passage 0).
(§1) Following plating cells were expanded for about 3–4 days (Passage 1, P1). Cells were treated daily with 10 ng/ml bFGF. The cultures were never permitted to reach more than 70% confluency. Cultures were then passaged as follows: 10 ml of HBSS without Ca^2+ and Mg^2+ was added to each 100 mm dish and the cells incubated at 37° C. for 5–15 minutes, or until sufficient numbers of the stem cells were rounded up. It is not expected that all cells in the culture will round up as there are several cell types in the culture at P0. The pH of the HBSS should be neutral at all times during this incubation. Cells were then removed from the dish by pipetting with a 5 ml pipette, and collected in a 15 or 50 ml conical tube, and centrifuged at 1000 g for 5 minutes. Cells were gently re-suspended in medium, counted, and plated at a density of 1×10^6 cells in 10 cm dishes and expanded for about 2 days in bFGF (Passage 1, P1). At that time the cells were passaged as described and plated onto pre-coated poly-L-ornithine/fibronectin vessels at concentrations indicated below for each experiment. Cells were treated with bFGF for 2 additional days. Before each treatment the bFGF was removed from the cells by washing twice with DMEM/F 12 to induce cell differentiation. For neurite outgrowth experiments, cells were seeded at 5×10^3 cells/well in 24-well plates and treated immediately.
(§2) Drug treatment. For immunofluorescence and Western analysis, cells were treated daily with either 0.5 mM of valproate (Sigma), 10 ng/ml of BDNF (R & D Systems), 20 ng/ml of NT-3 (R & D Systems), 1 nM 9cis retinoic acid (Sigma) or a dilution of NCM for 6 or 7 days. In some experiments valproate was also added with NCM and/or 9cis RA for 7 days. For human stem cell experiments, valproate (0.5 mM) or BDNF (25 ng/ml) was added for 9 days. For neurite outgrowth experiments, cells were treated for 1 day with 0.5 mM valproate or 50 ng/ml of BDNF. Where applicable, medium was changed every 2 days. After about 5–10 days, preferably on day 6 (i.e., after 6 days of drug exposure) the cells were fixed with a 4% solution of para-formaldehyde (PFA) in PBS, prepared as follows:
Immunofluorescent staining and visualization. Cells were plated at 20,000 cells/well in poly-L-ornithine/fibronectin (1 mg/ml) coated 24-well plates. After fixation, the PBS was aspirated from the fixed cells and the cells were treated with blocking solution (10% normal goat serum-NGS-Jackson Labs), 0.3% Triton-Sigma, in PBS) to saturate non-specific sites and permeabilize the cells. […]

rat cortical stem cells [4] = assay: Neurite outgrowth of neurons derived from rat cortical stem cells (ArrayScan neurite outgrowth index); type: cell-based; settings: 1 day; 0.5 mM valproate, 50 ng/ml BDNF; control 35.1+0.3
Protocol: as §1, with “At that time the cells were passaged as described and plated onto pre-coated poly-L-ornithine/fibronectin vessels at concentrations indicated below for each experiment. Cells were treated with bFGF for 2 additional days. Before each treatment the bFGF was removed from the cells by washing twice with DMEM/F 12 to induce cell differentiation. For neurite outgrowth experiments, cells were seeded at 5×10^3 cells/well in 24-well plates and treated immediately.” left out
For analysis of neurite outgrowth, digital images were taken with an ArrayScan HCS System (Cellomics, Pa.) of 100 cells/well treated with valproate (0.5 mM) and BDNF (50 ng/ml) for 1 day. […] Neurite outgrowth index is defined as the percentage of cells whose neurites total more than 20 μm in length, and is calculated using Cellomics' Neurite Outgrowth application.

[5] = tested on: human striatal stem cells (line 161); assay: Neuronal differentiation of human striatal stem cells (β tubulin III neurons, total cells); type: cell-based; settings: 9 days, 0.5 mM valproate, BDNF 25 ng/ml, untreated control 40%
Protocol: Expansion and differentiation of striatal human stem cells. Human stem cells were provided from ReNeuron Inc. (U.K.). Striatum was obtained after 6 to 12 weeks of gestation from routine legal abortion. Cell line was provided by ReNeuron at passage 16. The stem cells were expanded in untreated 25 cm^2 tissue culture flasks (Nunc, USA) in the presence of 20 ng/ml and 10 ng/ml of human recombinant EGF and bFGF respectively, in NSA basal serum-free medium (Euroclone, U.K). Fresh medium and growth factors were added every 3 days. In these conditions stem cells were growing as floating neurospheres. After 4 weeks, the neurospheres were harvested, treated with a mild papain treatment in HBSS and dissociated into a single cell suspension. Cells were counted and viability was estimated by trypan blue exclusion method. Cells were differentiated by growth factors removal. The cells were plated in NSA medium at 20,000 cells/well on LabTek permanox culture slides of 8 wells precoated with laminin (1 μg/ml). Cells were treated with valproate and BDNF for 9 days at 37° C. and a saturated humidified atmosphere of 5% CO2, 1% O2 and 94% N2. Fresh medium and re-treatment with factors was performed every 3 days.
as §2
Immunofluorescent staining and visualization. Cells were plated at 20,000 cells/well in poly-L-ornithine/fibronectin (1 mg/ml) coated 24-well plates. […]
For counting, three to five different fields of interest at magnification 10× or 20× were chosen randomly. For immunofluorescence, 3 different black and white pictures were taken by field of interest with a digital camera CoolSnap Fx (Princeton) corresponding to the exposure of Cy2, Cy3 and Hoechst fluorescence. […] The percentage of neurons, astrocytes and GABAergic cells was determined by comparing the number of cells immunopositive for β-tubulin III, GFAP and GABA to the number of bis-benzamide stained nuclei (i.e., total cell number). […]

Molecule | effect on proliferation and differentiation [1] | teratogenic activity [2] | further results
CCC=C(CCC)C(=O)O [2-en-valproate] | have not been shown to affect differentiation | Non-teratogenic | 
C#CCC(CCC)C(=O)O (stereo not drawn) [R-4-yn-valproate] | have not been shown to affect differentiation | Non-teratogenic | 
CC1=C(/C=C/C(C)=C\C=C\C(C)=C\C(=O)O)C(C)(C)CCC1 [9-cis RA, 9-cis retinoic acid] |  |  | neuronal differentiation compared to control, in words (rat cortical stem cells [3]; daily treatment 7 days, 0.5 mM valproate, 0.5× NCM, 1 nM 9-cis RA): increased the neuronal differentiation
C#CC[C@H](CCC)C(=O)O [(s)-4-yn-valproate] | inhibit proliferation and enhance differentiation | in vivo teratogenic activity | 
CCCCC(CCC)C(=O)O (stereo not drawn) [2-propylhexanoic acid] | inhibit proliferation and enhance differentiation | in vivo teratogenic activity | 
CCCC(CC(C)C)C(=O)O (stereo not drawn) [4 methyl-valproate] | have not been shown to affect differentiation | Non-teratogenic | 
CCCCC(CC)C(=O)O (stereo not drawn) [2-ethylhexanoic acid] | inhibit proliferation and enhance differentiation | in vivo teratogenic activity | 
CCCCC(CCCC)C(=O)O [2-butylhexnoic acid] | inhibit proliferation and enhance differentiation | in vivo teratogenic activity | 
B1 |  |  | effect on neuronal differentiation (percentage of β-tubulin-III expressing cells) in words (rat cortical stem cells [3]): didn't have any effect; percentage of β-tubulin III expressing neurons (mean+SD) (rat cortical stem cells [3]; 0.5 mM valproate): 8+1%
B2 |  |  | neurite index (percentage of cells whose neurites total more than 20 μm in length) (rat cortical stem cells [4]): 38.3+1; neuronal differentiation [5]: 58%; effect on neuronal differentiation (percentage of β-tubulin-III expressing cells) in words (rat cortical stem cells [3]): increased the percentage of β-tubulin-III expressing cells over control but was less effective than valproate; percentage of β-tubulin III expressing neurons (mean+SD) (rat cortical stem cells [3]; 0.5 mM valproate): 12.7+2%

Source: patent US7132286B2, “Method for neural stem cell differentiation using valproate” (Psychiatric Genomics, Inc., priority 2001, dated 2006)
